Patent US20160279246A1, “METHODS AND SYSTEMS FOR CONTINUOUS HETEROGENEOUS CRYSTALLIZATION” (Massachusetts Institute of Technology, priority 2015, published 2016)

Assay: Solubility of API and excipient in the solvent ethanol
Format: physicochemical
From the text: The API-Excipient-Solvent selection was important to this process. The specific API chosen was soluble in the solvent; however the excipient was insoluble in the same solvent. The API-Excipient combination was such that the API molecules easily nucleate on the surface of the excipient. Use of low supersaturation stopped primary nucleation, and ensures the presence of heterogeneous nuclei alone. These nuclei grew further during their stay inside the column. Tuning of residence time and supersaturation helps in tuning of the loading (weight of API per unit weight of product) of excipient particles with drug.
An exemplary embodiment was implemented with Acetaminophen-D-mannitol-Ethanol as a sample API-Excipient-Solvent system. Acetaminophen was soluble in ethanol; however D-mannitol was insoluble in ethanol.

Structure (SMILES) | Solubility in ethanol
CC(=O)Nc1ccc(O)cc1 [Acetaminophen] | soluble
OC[C@@H](O)[C@@H](O)[C@H](O)[C@H](O)CO [D-mannitol] | insoluble
